Marks after values point to notes of the source that are not given here.
Columns and labels:
[1] = test system: southern corn rootworm (SCR) adults; test: Sticky trap attraction in corn, estragole analogues (Example 3); format: in vivo, Diabrotica undecimpunctata howardi; details: 100 mg per trap, n = 4
In short: (§1)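 Cotton wicks dosed with 100 mg or 100 μL attractant per trap on TangleTrap-coated cartons, four replicates 10 m apart on 1 m posts at field edges of hybrid or sweet corn. Mean beetles caught after ~24 h; log-transformed ANOVA with Duncan's test, P=0.05.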

D. v. virgifera [2] = test: Sticky trap attraction along hybrid corn, Pomology South Farms (Example 2); format: in vivo, Diabrotica virgifera virgifera; details: August 7; 100 mg per trap; n = 4
Method: (§2) The candidate lures in all experiments were purchased commercially and exceeded 98% purity. The test chemicals were applied by capillary micropipettes to cotton dental wicks which were attached to the tops of 1.0 liter cylindrical paper cartons covered with TangleTrap™ (Tanglefoot Co., Grand Rapids, Mich.). The sticky trap techniques used were as described in Example 1. Cinnamyl alcohol and para-methoxycinnamaldehyde, which are solids, were dissolved in glass-distilled acetone prior to dosing the cotton wicks. All treatments were applied at a dosage of 100 mg per trap. 1,2,4-trimethoxybenzene, indole, and trans-cinnamaldehyde were mixed in a ratio of 1:1:1, by weight, immediately prior to dosing the cotton wicks. Control traps had untreated cotton wicks. Four replicates of treated and untreated traps were randomly positioned 10 meters apart on top of 1 m high posts along the border of a eight foot wide strip cut through the middle of a 4.05 ha relict prairie at Trelease Woods (ca. two miles northeast of Urbana, Ill.). The field consisted primarily of Andropogon gerardii Vitman (big bluestem) and a variety of composites. The tests were conducted in mid-August of two years and were timed to coincide with the presence of D. cristata and D. barberi adults in the flower heads of Canada thistle (Carduus arvensis Robson). In the second year, several new attractants of D. v. virgifera and D. barberi were tested in Trelease Woods and along the edge of a 0.8 ha field of hybrid corn located at the Pomology South Farms, Urbana, Ill. Attraction of Diabrotica species to the various lures was measured by the mean number of beetles caught after 24-h. On one date in late August of the first year, D. cristata and D. barberi were removed from the traps and sexed in the laboratory. The significance of treatments in all tests was determined by an analysis of variance and the individual means were separated by Duncan's multiple range test (Statistical Package for Social Science, Nie, et al., SPSS: statistical package for the social sciences, 2nd ed. McGraw-Hill, New York (1975). Data were logarithmically transformed for statistical analysis and the means and standard deviations are presented for the untransformed data.

D. barberi [3] = test: Sticky trap attraction in prairie habitat, Trelease Woods (Example 2); format: in vivo, Diabrotica barberi; details: 100 mg per trap, n = 4
In short: (§3)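 Lure-dosed cotton wicks (solids in acetone; untreated controls) on TangleTrap-coated cartons atop 1 m posts, four replicates 10 m apart in relict prairie, mid-August over two years. Read-out: mean beetles caught after 24-h; log-transformed ANOVA with Duncan's multiple range test.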

[4] = test system: northern corn rootworm (NCR) adults; test: Sticky trap attraction in corn, estragole analogues (Example 3); format: in vivo, Diabrotica barberi; details: August 7 (Table 11); 100 mg per trap; n = 4
In short: as §1

D. u. howardi [5] = test: Sticky trap attraction along hybrid corn, Pomology South Farms (Example 2); format: in vivo, Diabrotica undecimpunctata howardi; details: August 7; 100 mg per trap; n = 4
Method: as §2

WCR = details: in vivo; cited from earlier work
[6] = test system: western corn rootworm (WCR) adults; test: Sticky trap attraction in corn, estragole analogues (Example 3); format: in vivo, Diabrotica virgifera virgifera; details: 100 mg per trap
In short: as §1

D. cristata = test: Sticky trap attraction in prairie habitat, Trelease Woods (Example 2); format: in vivo, Diabrotica cristata; details: 100 mg per trap, n = 4
In short: as §3

D. u. howardi [7] = test: as above; format: in vivo, Diabrotica undecimpunctata howardi; details: 100 mg per trap, n = 4
In short: as §3

[8] = test system: western corn rootworm (WCR) adults; details: in vivo; cited from earlier work
D. v. virgifera [9] = test: Sticky trap attraction in prairie habitat, Trelease Woods (Example 2); format: in vivo, Diabrotica virgifera virgifera; details: 100 mg per trap, n = 4
In short: as §3

D. barberi [10] = test: Sticky trap attraction along hybrid corn, Pomology South Farms (Example 2); format: in vivo, Diabrotica barberi; details: August 7; 100 mg per trap; n = 4
Method: as §2

In the case of C=CCc1ccc(OC)cc1 [I, 4-methoxy-1-allylbenzene], the “Mean number of SCR adults per sticky trap (±standard deviation) after 24 hours” value ([1]; August 4 second year) is reported as 7.2 ± 5.1^a per sticky trap, the “Mean number of SCR adults per sticky trap (±standard deviation) after 24 hours” value ([1]; August 5 first year) is reported as 9.2 ± 5.6^a per sticky trap and the “Mean number of SCR (±standard deviation) per sticky trap after 24 hours” value ([1]; August 7 (Table 11)) is reported as 7.0 ± 4.5^a per sticky trap. For the same compound, the “Mean number of D. v. virgifera per stick trap per day (±standard deviation) in corn” value (D. v. virgifera [2]) was 64.0 ± 15.9^b per stick trap per day, the “Mean number of D. barberi per day (±standard deviation)” value (D. barberi [3]; August 11, 1987) was 1.0 ± 2.0^a per day and the “Mean number of D. barberi per day (±standard deviation)” value (D. barberi [3]; August 14, 1987) was 4.0 ± 0.8^b per day. For the same compound, the “Mean number of D. barberi per sticky trap per day (±standard deviation)” value (D. barberi [3]; August 27, first year) was 6.5 ± 3.7^b per sticky trap per day, the “Mean number of NCR (±standard deviation) per sticky trap after 24 hours” value [4] was 2.2 ± 2.1^ab per sticky trap and the “Mean number of D. u. howardi per stick trap per day (±standard deviation) in corn” value (D. u. howardi [5]) was 7.0 ± 4.5^a per stick trap per day. The “LR for WCR, most effective volatile attractants yet identified” value (WCR) was 3 mg, the “Mean number of WCR adults per sticky trap (±standard deviation) after 24 hours” value ([6]; August 4 second year, n = 4) was 84.5 ± 19.7^d per sticky trap and the “Mean number of WCR adults per sticky trap (±standard deviation) after 24 hours” value ([6]; August 5 first year, n = 4) was 17.2 ± 7.8^c per sticky trap. For the same compound, the “Mean number of WCR (±standard deviation) per sticky trap after 24 hours” value ([6]; August 7 (Table 11), n = 4) was 64.0 ± 15.9^b per sticky trap, the “Relative percent activity as compared with the highest mean in the column (WCR)” value ([6]; August 29) was 100% and the “Mean number of WCR per sticky trap (±standard deviation) after 24 hours” value ([6]; August 29, n = 4) was 147.2 ± 46.5 per sticky trap. The “Relative percent activity as compared with the highest mean in the column (WCR)” value ([6]; July 30) was 100%, the “Mean number of WCR per sticky trap (±standard deviation) after 24 hours” value ([6]; July 30, n = 4) was 82.1 ± 8.6 per sticky trap and the “Mean number of D. cristata per day (±standard deviation)” value (D. cristata; August 11, 1987) was 13.5 ± 4.1^b per day. The “Mean number of D. cristata per day (±standard deviation)” value (D. cristata; August 14, 1987) was 13.0 ± 4.2^c per day, the “Mean number of D. cristata per sticky trap per day (±standard deviation)” value (D. cristata; August 27, first year) was 5.3 ± 1.0^b per sticky trap per day and the “Mean number of D. u. howardi per day (±standard deviation)” value (D. u. howardi [7]; August 11, 1987) was 0.3 ± 0.5^a per day. For the same compound, the “Mean number of D. u. howardi per day (±standard deviation)” value (D. u. howardi [7]; August 14, 1987) was 0.5 ± 0.7^a per day, the “Mean number of D. u. howardi per sticky trap per day (±standard deviation)” value (D. u. howardi [7]; August 27, first year) was 3.0 ± 2.8^a per sticky trap per day and the “LR values for WCR attraction (literature)” value [8] was “about 3 mg”. For the same compound, the “Mean number of D. v. virgifera per day (±standard deviation)” value (D. v. virgifera [9]; August 11, 1987) was 0.3 ± 0.5^a per day, the “Mean number of D. v. virgifera per day (±standard deviation)” value (D. v. virgifera [9]; August 14, 1987) was 0.3 ± 0.5^a per day and the “Mean number of D. v. virgifera per sticky trap per day (±standard deviation)” value (D. v. virgifera [9]; August 27, first year) was 0 per sticky trap per day. The “Mean number of D. barberi per stick trap per day (±standard deviation) in corn” value (D. barberi [10]) was 2.3 ± 2.1^ab per stick trap per day.

Reference: patent US6613317B1, “Volatile attractants for diabrotica species” (priority 1988, dated 2003)
